The record followed here is patent US6906061B2, “Pharmaceutical agent containing Rho kinase inhibitor” (Mitsubishi Pharma Corporation, priority 1996, dated 2005).

For one data set, the target named is T1, ROCKII (Mus musculus, UniProt P70336).
T1 construct: made in house; host or cells: COS cells (transient transfection, immunoprecipitated with 9E10 anti-myc antibody on protein G-Sepharose)
As to the kind of experiment: Inhibition of ROCKII (myc-tagged, expressed in COS cells). It counts as biochemical. The conditions noted are these: enzyme expressed in COS cells; read-out: IC50 (μM) ROCK-II. How it is done:
(§1) Kinase assay included the following steps. That is, a reaction mixture (total amount 30 μl) containing 50 mM Hepes-NaOH (pH=7.4), 10 mM MgCl2, 5 mM MnCl2, 2 mM dithiothreitol, 0.02% Brij35, 1 μM [γ-^32P]ATP, 330 μg/ml histone, p160ROCK (2 μl) isolated by the method of Ishizaki et al. and the test compound was incubated at 30° C. for 20 minutes. The solution was mixed with a 1/3 amount of 4× Laemmli sample buffer, boiled for 5 minutes and applied to SDS-PAGE. The gel was stained with Coomassie Brilliant Blue and dried. The band of histone was cut out and assayed for radioactivity.
(§2) Rho Kinase Inhibitory Action (Inhibition of p160ROCK and ROCKII)
(§3) COS cells were seeded in a 3.5 cm dish and incubated overnight. […] After incubation for 20 hours, the cells were washed once with ice-cooled PBS, and the cells were lysed on ice for 20 minutes using a lysis buffer (20 mM Tris-HCl (pH=7.5), 1 mM EDTA, 1 mM EGTA, 5 mM MgCl2, 25 mM NaF, 10 mM β glycerophosphate, 5 mM sodium pyrophorphate, 0.2 mM phenylmethylsulfonyl fluoride, 2 mM dithiothreitol, 0.2 mM sodium vanadate, 0.05% Triton X-100, 0.1 μM calyculin A). The lysate was centrifuged at 10,000×g for 10 minutes and the supernatant was recovered. […] Then, protein G-Sepharose was added and the mixture was shaken for 2 more hours. […]

The next data set concerns mouse femoral bone. Kind of data set: Inhibition of bone resorption (in vitro), mouse femoral bone. The conditions noted are these: 144 h, 6 days incubation of ICR mouse femoral bone. On the procedure:
Inhibition of Bone Resorption (in vitro)
The determination of the in vitro inhibition of bone resorption using mouse femoral bone followed the method below.
The femoral bone of 3-6 week old male ICR mice was aseptically removed, and bone marrow cavity was washed with F12 medium, containing 10% heat inactivated fetal bovine serum, penicillin G calcium (100 units/ml), kanamycin sulfate (60 μg) and 0.15% sodium hydrogencarbonate (hereinafter the medium is to be referred to as culture solution). After washing the bone marrow cavity and then removing the soft tissue adhered to the bone, the bone was subjected to incubation. The test compound was once dissolved in dimethyl sulfoxide (DMSO) to give a 10 mg/ml solution, which was diluted 1000-fold with the culture solution to give a 10 μg/ml solution. The test compounds were respectively added to the concentration shown in Table 7 and, using this culture solution (1.2 ml), the ICR mouse femoral bone was incubated in a 24 well plate for 6 days under the conditions of 5% CO2 gas, 95% air. After the completion of the incubation, the culture supernatant was recovered, and the amount of calcium suspending in the culture supernatant was quantitatively determined by the chelate method using o-cresolphthalein. The bone resorption inhibitory action of the test compound was calculated by the following formula using the incubation of the femoral bone without addition of the test compound as a control. [formula] This experiment was done with 4 cases in each group. As the control, the same amount of DMSO alone as in the case with the addition of the test compound was used.

For another data set, the target named is T2, p160ROCK (Homo sapiens, UniProt Q13464).
T2 construct: made in house; host or cells: COS cells (transient transfection, immunoprecipitated with 9E10 anti-myc antibody on protein G-Sepharose)
As to the kind of experiment: Inhibition of p160ROCK (myc-tagged, expressed in COS cells). In kind it is biochemical. The conditions noted are these: enzyme expressed in COS cells. How it is done:
as §1, §2, §3

A further data set has as its system ddY mice. Kind of data set: Acute toxicity in ddY mice. It counts as in vivo. To be noted: intraperitoneal administration at 30 mg/kg, monitored for 5 days. From the text:
The compound 109.2HCl and compound 143.2HCl.H2O were respectively administered intraperitoneally to ddY mice and the mice were monitored for 5 days.

The target in data set [1] is T3, Human Platelet Rho Kinase (p160ROCK) (Homo sapiens, UniProt Q13464).
T3 construct: Human platelet p160ROCK was isolated by the method of Ishizaki et al; from tissue; host or cells: human platelets
Kind of data set: Rho kinase inhibitory action (inhibition of human platelet Rho kinase (p160ROCK)). It counts as biochemical. The conditions noted are these: histone substrate, 1 μM ATP. On the procedure: Rho Kinase Inhibitory Action (Inhibition of Human Platelet Rho Kinase (p160ROCK))
as §1

The subject of data set [2] is CEM cells (human T cell type established cell). As to the kind of experiment: Inhibition of VLA integrin activation (phorbol ester-induced adhesion of CEM cells to fibronectin). It counts as cell-based. The conditions noted are these: CCRF-CEM, PMA-induced adhesion, read-out: Adhesion induction inhibition (%). On the procedure: Inhibition of VLA (Very Late Antigen) Integrin Activation
As the index of the activation by VLA integrin, phorbol ester-induced adhesion of CEM cells (human T cell type established cell) to fibronectin, which is a ligand of VIA integrin, was measured. The inhibitory action on the induced adhesion by the test compound was determined by the following method.
CEM cells were washed with RPMI1640 medium containing 0.5% bovine serum albumin (BSA), 10 mM HEPES, 2 mM L-glutamin, 1 mM sodium pyruvate, 60 μg/ml kanamycin sulfate and 1.5 mg/ml sodium hydrogencarbonate (hereinafter this medium is referred to as culture solution) and suspended in this medium for use in the following experiment. To each well of a 96 well plate coated with human fibronectin were added CEM cells (5×10^4) and the test compound dissolved in the culture solution (final concentration 1-100 μM) to the amount of 100 μl, and the plate was stood at 37° C. for 1 hour. Then, PMA (phorbol 12-myristate 13-acetate, TPA; final concentration 10 ng/ml) and the test compound were added to the amount of 200 μl, and the plate was stood at 37° C. for 30 minutes. Each well was washed twice with the culture solution (200 μL) at 37° C., and the LDH (lactate dehydrogenase) activity of the cells adhered to the plate was determined, whereby the amount of the adhered cell was measured. Based on the results obtained by the above-mentioned method, the inhibitory action of the test compound on the induced adhesion was calculated by the following formula The results are shown in Table 6. Inhibition (%) of adhesion induction=(a−b)/(a−c)×100 • a=number of cells adhered with the addition of PMA • b=number of cells adhered with the addition of test compound and PMA • c=number of cells adhered without stimulation

Data set [3] deals with thoractic aorta ring contracted with phenylephrine. As to the kind of experiment: Vasodilating action on phenylephrine-contracted thoracic aorta rings. The conditions noted are these: Oryctolagus cuniculus; rabbit aortic ring, phenylephrine 10^−6 M contraction; concentration for 50% relaxation; read-out: Vasorelaxing action. How it is done: Male rabbits (body weight 1.9-3.0 kg) were anesthetized with pentobarbital sodium and exsanguinated, whereafter thoractic aorta was removed. An about 2 mm width aortic ring samples were prepared and hung in a Magnus bath (40 ml) filled with Krebs-Henseleit solution (37° C., NaCl 117 mM; KCl 4.7 mM; CaCl2 2.5 mM; MgSO4 1.2 mM; NaHCO3 24.8 mM; KH2PO4 1.2 mM; glucose 11.0 mM) at a load of 2 g. The Magnus bath was constantly bubbled with a mixed gas (95% O2+5% CO2 gas). The tension of the preparation was measured with an isomeric transducer (TB-611T, Nippon Koden). The preparation was contracted with phenylephrine (10^−6 M) and, after the contraction was stabilized, the test compound was added accumulatively and relaxing action was observed.

The test system of data set [4] is hind limb skin blood flow. As to the kind of experiment: Peripheral blood flow increasing action in STZ-induced diabetic rats. In kind it is in vivo, rat. To be noted: intravenous. How it is done: Peripheral Blood Flow Increasing Action
Streptozotocin (STZ, 65 mg/kg) was intravenously injected to male SD rats (body weight 200-300 g) to prepare diabetic rats. One month later, STZ-induced diabetic rats were anesthetized with pentobarbital sodium and the blood flow in the hind limb skin was measured with laser blood flowmeter (ALF21R, Advance). The test compound was intravenously administered via catheter dwelled in the carotid arteries, and hind limb skin blood flow increasing action was observed. The blood flow increasing action of the test compound was expressed by increase percentage from the blood flow before administration.

In data set [5] the test system is smooth muscle cell (SMC) from rat aorta. As to the kind of experiment: Inhibition of growth of vascular smooth muscle cell. In kind it is cell-based. To be noted: 48 hours, MTT. How it is done:
Inhibition of Growth of Vascular Smooth Muscle Cell
The separation from the artery of rat and culture of smooth muscle cell (SMC) followed the explant method of Ross (Ross, R. and Glomset, J. A., N. Engl. J. Med., 295, 369-420, 1976). Male wistar rats (10 week old) was slaughtered by cutting the carotid arteries and aorta of thorax was removed. After removal of fat tissues around the tunica externa and peeling of tunica intima, the artery was minced and incubated in 10% fetal bovine serum (FBS)-containing DMEM medium at 37° C. under 5% CO2 gas. Seven days later, the out-grown cells were separated by trypsin treatment, washed with phosphate-buffered saline (PBS) and incubated in 10% FBS-containing DMEM medium in a 80 cm^2 culture flask. The cells of subculture 2 were suspended in 10% FBS-containing DMEM medium at 5×10^4 cells/ml and 100 μl thereof per well was added to 96 well collagen-coated plate, which was incubated at 37° C. under 5% CO2 gas for one day. The test compound was appropriately diluted with dimethyl sulfoxide (DMSO) and added to the 96 well plate. The concentration of DMSO in the medium was adjusted to 1%. After 48 hours, 10 μl of MTT solution (5 mg/ml) was added and, 4 hours later, 10% sodium dodecyl sulfate-0.01 N hydrochloric acid (50 μl) was added. The absorbance at 570 nm was measured the following day by an immunoreader. The SMC growth inhibitory action of the test compound was shown by inhibition percentage calculated by the following formula The results are shown in Table 10.

In data set [6] the test system is trachea specimen contracted with acetylcholine. As to the kind of experiment: Effect on contraction by acetylcholine of trachea specimen removed from guinea pig. To be noted: Cavia porcellus, acetylcholine 10^−6 M contraction, 50% relaxation vs papaverine 10^−4 M maximum, read-out: Trachea relaxing action.
Experimental: Male Hartley guinea pigs (body weight 260-390 g) were anesthetized by the peritoneal administration of pentobarbital sodium (100 mg/kg) and exsanguinated, whereafter trachea was removed. The anterior cartilage of the trachea was opened and the band was cut in a 3 mm width strip to give a specimen. The specimen was hung in a Magnus bath (40 ml) filled with Krebs-Henseleit solution (NaCl 117 mM; KCl 4.7 mM; CaCl2 2.5 mM; MgSO4 1.2 mM; NaHCO3 24.8 mM; KH2PO4 1.2 mM; glucose 11.0 mM) at a load of 1 g. The Magnus bath was constantly bubbled with a mixed gas (95% O2+5% CO2 gas). The tension of the strip was measured with an isomeric transducer (TB-611T, Nippon Koden) and depicted on a recorder (Ti-102, Tokai Irika).
Data set [7] concerns Bovine Aorta Thoracia Rho Kinase. As to the kind of experiment: Rho kinase inhibitory action (inhibition of bovine aorta thoracia Rho kinase). In kind it is biochemical. The conditions noted are these: test compound 10 μM. How it is done:
Rho Kinase Inhibitory Action (Inhibition of Bovine Aorta Thoracia Rho Kinase)
The Rho kinase was prepared from bovine aorta of thorax by partial purification as in the following. The artery was minced and homogenized with a 9-fold amount of 50 mM Tris-hydroxymethylaminomethane (Tris) (pH=7.4), 1 mM dithiothreitol, 1 mM EGTA, 1 mM EDTA, 100 μM p-amidinophenylmethylsulfonyl fluoride, 5 μM E-64, 5 μM leupeptine and 5 μM pepstatin A. The homogenate was centrifuged (10,000×g, 30 minutes) to give supernatant. The supernatant was adsorbed onto a hydroxyapatite column. The column was washed with 0.2M phosphate buffer (pH=6.8). The standard product of Rho kinase was eluted with 0.4M phosphate buffer (pH=6.8). The Rho kinase was assayed as follows.
A reaction mixture (total amount 50 μl) containing 50 mM Tris, 1 mM EDTA, 5 mM MgCl2, 50 μg/ml histone, 10 μM GTPγS, 100 μg/ml Rho, 2 μM [^32P]ATP, the Rho kinase (3 μl) prepared in the above and the test compound was reacted at 30° C. for 5 minutes. The reaction was terminated by the addition of 25% trichloroacetic acid (TCA) solution (1 ml) and the mixture was stood at 4° C. for 30 minutes. Then, the mixture was filtered through a membrane filter (HAWP type, Millipore), and the radioactivity of the filter was counted on a liquid scintillation counter. The inhibitory action of the test compound was calculated from the following formula based on the comparison of the radioactivity with the sample without the test compound (control).

Data set [8] has as its system normal human umberical vascular endothelial cells. Kind of data set: Inhibition of angiogenesis (lumen formation in vascular endothelial cells). In kind it is cell-based. The conditions noted are these: 18 hours, compared with the control, number rises with inhibition of lumen formation. On the procedure: Inhibition of Angiogenesis
The inhibition of angiogenesis was evaluated by using the inhibition of lumen formation in vascular endothelial cell as an index. To be specific, normal human umberical vascular endothelial cells (KURABO […] LTD.) were suspended in E-GMUV medium at 5.5×10^4 cells/ml and 400 μl therefrom was added on matrigel plate (EHS sarcoma-derived reconstructed basement membrane, Collaborative Biomedical Products). Then, the test compound (1 mM solution, 4 μl) was added and the cells were incubated at 37° C. under 5% CO2 gas for 18 hours. After the completion of the incubation, the number of lumen per predetermined area was counted under a microscope. Inasmuch as the number of lumen increases by the inhibition of lumen formation, the test compound was evaluated by comparison of the number of lumen with the control.

T1 sequence (P70336 whole entry): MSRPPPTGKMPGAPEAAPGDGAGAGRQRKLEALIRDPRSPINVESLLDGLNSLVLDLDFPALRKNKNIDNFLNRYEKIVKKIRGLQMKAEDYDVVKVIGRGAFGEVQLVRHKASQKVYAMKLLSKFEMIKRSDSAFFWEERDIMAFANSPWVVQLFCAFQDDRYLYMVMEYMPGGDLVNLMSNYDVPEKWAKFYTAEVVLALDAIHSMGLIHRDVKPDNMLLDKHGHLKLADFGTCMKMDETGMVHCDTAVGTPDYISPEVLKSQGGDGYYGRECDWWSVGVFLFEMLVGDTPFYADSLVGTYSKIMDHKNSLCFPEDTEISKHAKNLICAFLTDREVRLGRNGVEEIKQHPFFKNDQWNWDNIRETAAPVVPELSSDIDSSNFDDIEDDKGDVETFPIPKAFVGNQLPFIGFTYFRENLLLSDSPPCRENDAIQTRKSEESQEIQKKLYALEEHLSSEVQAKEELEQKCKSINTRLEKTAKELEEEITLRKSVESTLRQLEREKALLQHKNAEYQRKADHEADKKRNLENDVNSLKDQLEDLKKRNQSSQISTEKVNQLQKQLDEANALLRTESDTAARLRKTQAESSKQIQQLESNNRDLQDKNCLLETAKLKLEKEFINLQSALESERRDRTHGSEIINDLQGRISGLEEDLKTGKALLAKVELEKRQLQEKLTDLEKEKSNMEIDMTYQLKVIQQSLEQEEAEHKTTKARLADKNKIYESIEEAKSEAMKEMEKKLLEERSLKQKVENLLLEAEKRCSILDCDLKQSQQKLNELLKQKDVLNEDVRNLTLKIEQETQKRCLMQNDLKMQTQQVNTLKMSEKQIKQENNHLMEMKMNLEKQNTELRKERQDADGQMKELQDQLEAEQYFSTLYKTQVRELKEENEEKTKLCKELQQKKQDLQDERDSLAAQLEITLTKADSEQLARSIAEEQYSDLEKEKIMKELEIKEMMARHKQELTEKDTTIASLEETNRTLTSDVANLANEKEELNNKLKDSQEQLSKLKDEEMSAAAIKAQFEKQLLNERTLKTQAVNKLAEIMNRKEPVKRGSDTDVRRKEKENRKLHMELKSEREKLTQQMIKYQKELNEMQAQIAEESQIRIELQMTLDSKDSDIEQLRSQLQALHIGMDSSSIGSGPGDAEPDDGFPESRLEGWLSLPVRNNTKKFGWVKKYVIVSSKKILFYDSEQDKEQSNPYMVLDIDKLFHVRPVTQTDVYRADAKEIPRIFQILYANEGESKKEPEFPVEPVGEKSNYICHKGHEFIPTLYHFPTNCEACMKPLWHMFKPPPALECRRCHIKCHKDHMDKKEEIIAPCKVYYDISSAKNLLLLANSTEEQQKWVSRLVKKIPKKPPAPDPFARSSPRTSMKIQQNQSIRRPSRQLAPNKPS
T3 sequence (Q13464 whole entry): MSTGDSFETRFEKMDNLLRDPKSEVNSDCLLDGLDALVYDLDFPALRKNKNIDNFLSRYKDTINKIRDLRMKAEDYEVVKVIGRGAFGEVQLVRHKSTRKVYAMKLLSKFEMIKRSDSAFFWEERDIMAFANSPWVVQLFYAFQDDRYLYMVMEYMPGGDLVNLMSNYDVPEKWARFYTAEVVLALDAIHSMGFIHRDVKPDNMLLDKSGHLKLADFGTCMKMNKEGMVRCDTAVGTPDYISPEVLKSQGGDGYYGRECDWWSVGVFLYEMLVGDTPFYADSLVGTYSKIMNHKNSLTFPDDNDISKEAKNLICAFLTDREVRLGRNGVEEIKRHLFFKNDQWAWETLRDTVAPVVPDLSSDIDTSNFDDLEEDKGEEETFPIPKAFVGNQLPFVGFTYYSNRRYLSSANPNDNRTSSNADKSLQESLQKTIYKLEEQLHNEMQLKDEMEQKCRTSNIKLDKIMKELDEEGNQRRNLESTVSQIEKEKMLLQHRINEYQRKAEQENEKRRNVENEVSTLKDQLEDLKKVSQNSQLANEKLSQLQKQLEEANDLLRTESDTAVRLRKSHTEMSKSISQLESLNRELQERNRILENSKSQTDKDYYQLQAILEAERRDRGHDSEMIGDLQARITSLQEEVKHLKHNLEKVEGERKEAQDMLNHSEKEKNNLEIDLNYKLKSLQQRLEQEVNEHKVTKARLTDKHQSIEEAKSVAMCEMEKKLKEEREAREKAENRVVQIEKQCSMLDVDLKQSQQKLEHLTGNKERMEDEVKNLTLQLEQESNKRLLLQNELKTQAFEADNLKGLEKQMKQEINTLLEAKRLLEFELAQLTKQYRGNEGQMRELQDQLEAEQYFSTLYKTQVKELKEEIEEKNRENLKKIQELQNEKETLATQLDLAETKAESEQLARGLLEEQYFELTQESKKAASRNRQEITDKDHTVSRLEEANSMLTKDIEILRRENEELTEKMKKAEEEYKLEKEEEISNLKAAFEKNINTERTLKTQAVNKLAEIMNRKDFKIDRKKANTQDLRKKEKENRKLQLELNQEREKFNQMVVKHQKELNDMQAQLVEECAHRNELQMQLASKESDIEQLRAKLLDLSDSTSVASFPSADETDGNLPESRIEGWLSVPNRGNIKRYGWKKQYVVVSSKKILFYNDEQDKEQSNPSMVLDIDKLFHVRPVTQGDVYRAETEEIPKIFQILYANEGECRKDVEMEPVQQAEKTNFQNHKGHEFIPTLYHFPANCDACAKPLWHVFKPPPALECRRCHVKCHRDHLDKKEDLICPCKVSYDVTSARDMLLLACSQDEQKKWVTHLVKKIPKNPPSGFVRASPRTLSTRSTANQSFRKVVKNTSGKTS
T2 sequence (Q13464 whole entry): as above

The inhibition is how much of the control response was suppressed. For `N=C(N)NC[C@H]1CC[C@H](C(=O)Nc2ccnc3[nH]ncc23)CC1` [Compound 143.2HCl.H2O, trans-N-(1H-pyrazolo[3,4-b]pyridin-4-yl)-4-guanidinomethylcyclohexanecarboxamide], the IC50 stood at 0.47 µM at ROCKII, 0.88 µM against p160ROCK and 1600 nM in [1]. For the same compound, the inhibition at 100 µM in the data set with mouse femoral bone worked out at 39.4%; in [2] (concentration 100 μM), 77%. For the same compound, the “Acute toxicity (death)” value with ddY mice is given as “did not cause death”.

For `C[C@@H](N)c1ccc(C(=O)Nc2ccnc3[nH]ccc23)cc1` [Compound 165.2HCl.3/2H2O, (R)-(+)-N-(1H-pyrrolo[2,3-b]pyridin-4-yl)-4-(1-aminoethyl)benzamide], the IC50 in data set [3] was determined as 51 nM; in data set [5], 38000 nM; in [6] it was 66 nM. For the same compound, the “Increase in skin blood flow ± standard error (%)” value in data set [4] (0.03 μg) turned out to be 135.8 ± 0.0%; in [4] (0.1 μg), 144.7 ± 0.0%. For the same compound, the “Inhibition (%)” value in data set [7] amounted to 100%. The inhibition at 10 µM in [2] (concentration 10 μM) is 40%. Besides, the “Number of lumen (10 μM)” value in [8] is recorded as 222%.
